IC50 data for 21 molecules are collected here from patent publication US20230117324A1, “OXAZINE MONOACYLGLYCEROL LIPASE (MAGL) INHIBITORS” (Hoffmann-La Roche Inc., priority 2018, published 2023).

This test concerns the target T1, MAGL (Homo sapiens, UniProt Q99685).
T1 sequence (Q99685 1-303): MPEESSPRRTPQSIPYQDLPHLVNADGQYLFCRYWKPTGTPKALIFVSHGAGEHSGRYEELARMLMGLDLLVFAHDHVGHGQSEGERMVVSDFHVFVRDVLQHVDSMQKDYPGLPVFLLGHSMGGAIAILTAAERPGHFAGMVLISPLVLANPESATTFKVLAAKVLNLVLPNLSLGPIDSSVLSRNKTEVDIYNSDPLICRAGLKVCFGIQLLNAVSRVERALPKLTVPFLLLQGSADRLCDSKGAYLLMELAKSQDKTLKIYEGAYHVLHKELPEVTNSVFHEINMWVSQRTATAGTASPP
The test is described as follows: MAGL inhibition, 2-AG assay (hydrolysis of 2-arachidonoylglycerol, arachidonic acid by mass spectrometry). It is filed as biochemical. The following applies: 2-AG assay (footnote [b]). As for the experimental part: Alternatively, compounds were profiled for MAGL inhibitory activity by determining the enzymatic activity by following the hydrolysis of the natural substrate 2-arachidonoylglycerol (2-AG) resulting in arachidonic acid, which can be followed by mass spectrometry. This assay is hereinafter abbreviated “2-AG assay”.
The 2-AG assay was carried out in 384 well assay plates (PP, Greiner Cat #784201) in a total volume of 20 μL. Compound dilutions were made in 100% DMSO (VWR Chemicals 23500.297) in a polypropylene plate in 3-fold dilution steps to give a final concentration range in the assay from 12.5 μM to […]. 0.25 μL compound dilutions (100% DMSO) were added to 9 μL MAGL in assay buffer (50 mM TRIS (GIBCO, 15567-027), 1 mM EDTA (Fluka, 03690-100 mL), 0.01% (v/v) Tween. After shaking, the plate was incubated for 15 min at RT. To start the reaction, 10 μL 2-arachidonoylglycerol in assay buffer was added. The final concentrations in the assay was […] and 8 μM 2-arachidonoylglyerol. After shaking and 30 min incubation at RT, the reaction was quenched by the addition of 40 μL of ACN containing 4 μM of d8-arachidonic acid. The amount of arachidonic acid was traced by an online SPE system (Agilent Rapidfire) coupled to a triple quadrupole mass spectrometer (Agilent 6460). A C18 SPE cartridge (G9205A) was used in an ACN/water liquid setup. The mass spectrometer was operated in negative electrospray mode following the mass transitions 303.1→259.1 for arachidonic acid and 311.1→267.0 for d8-arachidonic acid. The activity of the compounds was calculated based on the ratio of intensities [arachidonic acid/d8-arachidonic acid].
The term IC50 denotes the concentration needed to halve the response being measured. Molecule `CC1CN(C(=O)N2CC[C@@H]3OCC(=O)N[C@@H]3C2)CCC1c1ccc(C(C)(F)F)cn1` (single isomer, unassigned) [Example 43, (4aR,8aS)-6-((3R or 3S)-4-(5-(1,1-Difluoroethyl)pyridin-2-yl)-3-methylpiperidine-1-carbonyl)hexahydro-2H-pyrido[4,3-b][1,4]oxazin-3(4H)-one] showed an IC50 of 156 nM.
`CC1CN(C(=O)N2CC[C@@H]3OCC(=O)N[C@@H]3C2)CCC1c1ccc(C(C)(F)F)cn1` (single isomer, unassigned) [Example 44, (4aR,8aS)-6-((3S or 3R)-4-(5-(1,1-Difluoroethyl)pyridin-2-yl)-3-methylpiperidine-1-carbonyl)hexahydro-2H-pyrido[4,3-b][1,4]oxazin-3(4H)-one] gave an IC50 of 381 nM.
In turn, `CC1CN(C(=O)N2CC[C@@H]3OCC(=O)N[C@@H]3C2)CC[C@@H]1c1ccc(C(C)(F)F)cn1` (single isomer, unassigned) [Example 45, (4aR,8aS)-6-((4R or 4S)-(5-(1,1-Difluoroethyl)pyridin-2-yl)-3-methylpiperidine-1-carbonyl)hexahydro-2H-pyrido[4,3-b][1,4]oxazin-3(4H)-one] gave an IC50 of 3300 nM.
Under `CC(c1ccc(C(F)(F)F)cc1)C1CCN(C(=O)N2CC[C@@H]3OCC(=O)N[C@@H]3C2)CC1` (single isomer, unassigned) [Example 46, (4aR,8aS)-6-(4-((R or S)-1-(4-(Trifluoromethyl)phenyl)ethyl)piperidine-1-carbonyl)hexahydro-2H-pyrido[4,3-b][1,4]oxazin-3(4H)-one] stands 3 nM; under `CC(c1ccc(C(F)(F)F)cc1)C1CCN(C(=O)N2CC[C@@H]3OCC(=O)N[C@@H]3C2)CC1` (single isomer, unassigned) [Example 47, (4aR,8aS)-6-(4-((S or R)-1-(4-(Trifluoromethyl)phenyl)ethyl)piperidine-1-carbonyl)hexahydro-2H-pyrido[4,3-b][1,4]oxazin-3(4H)-one], 514 nM; under `O=C1CO[C@H]2CCN(C(=O)N3CCC(C(OCC(F)(F)F)c4ccc(F)cc4)CC3)C[C@H]2N1` (single isomer, unassigned) [Example 57, (4aR,8aS)-6-(4-((R or S)-(4-Fluorophenyl)(2,2,2-trifluoroethoxy)methyl)piperidine-1-carbonyl)hexahydro-2H-pyrido[4,3-b][1,4]oxazin-3(4H)-one], 29 nM.
Under `O=C1CO[C@H]2CCN(C(=O)N3CCC(C(OCC(F)(F)F)c4ccc(F)cc4)CC3)C[C@H]2N1` (single isomer, unassigned) [Example 58, (4aR,8aS)-6-(4-((S or R)-(4-Fluorophenyl)(2,2,2-trifluoroethoxy)methyl)piperidine-1-carbonyl)hexahydro-2H-pyrido[4,3-b][1,4]oxazin-3(4H)-one] stands 7 nM; under `Cc1noc(CC(c2ccc(F)cc2)C2CCN(C(=O)N3CC[C@@H]4OCC(=O)N[C@@H]4C3)CC2)n1` (single isomer, unassigned) [Example 59, (4aR,8aS)-6-(4-((R or S)-1-(4-Fluorophenyl)-2-(3-methyl-1,2,4-oxadiazol-5-yl)ethyl)piperidine-1-carbonyl)hexahydro-2H-pyrido[4,3-b][1,4]oxazin-3(4H)-one], 60 nM.
For the molecule `Cc1noc(CC(c2ccc(F)cc2)C2CCN(C(=O)N3CC[C@@H]4OCC(=O)N[C@@H]4C3)CC2)n1` (single isomer, unassigned) [Example 60, (4aR,8aS)-6-(4-((S or R)-1-(4-Fluorophenyl)-2-(3-methyl-1,2,4-oxadiazol-5-yl)ethyl)piperidine-1-carbonyl)hexahydro-2H-pyrido[4,3-b][1,4]oxazin-3(4H)-one], the IC50 came out at 67 nM.
Consider `COc1cccc(C(c2ccc(F)cc2)C2CCN(C(=O)N3CC[C@@H]4OCC(=O)N[C@@H]4C3)CC2)c1` (single isomer, unassigned) [Example 62, (4aR,8aS)-6-[4-[(S or R)-(4-Fluorophenyl)-(3-methoxyphenyl)methyl]piperidine-1-carbonyl]-4,4a,5,7,8,8a-hexahydropyrido[4,3-b][1,4]oxazin-3-one], for which half-maximal inhibition (IC50) required 0.4 nM.
Under `COc1cccc(C(c2ccc(F)cc2)C2CCN(C(=O)N3CC[C@@H]4OCC(=O)N[C@@H]4C3)CC2)c1` (single isomer, unassigned) [Example 63, (4aR,8aS)-6-(4-((R or S)-(4-Fluorophenyl)(3-methoxyphenyl)methyl)piperidine-1-carbonyl)hexahydro-2H-pyrido[4,3-b][1,4]oxazin-3(4H)-one] stands 0.3 nM; under `COc1cccc(C(c2ccccc2)C2CCN(C(=O)N3CC[C@@H]4OCC(=O)N[C@@H]4C3)CC2)c1` (single isomer, unassigned) [Example 64, (4aR,8aS)-6-(4-((S or R)-(3-Methoxyphenyl)(phenyl)methyl)piperidine-1-carbonyl)hexahydro-2H-pyrido[4,3-b][1,4]oxazin-3(4H)-one], 0.2 nM; under `COc1cccc(C(c2ccccc2)C2CCN(C(=O)N3CC[C@@H]4OCC(=O)N[C@@H]4C3)CC2)c1` (single isomer, unassigned) [Example 65, (4aR,8aS)-6-(4-((R or S)-(3-Methoxyphenyl)(phenyl)methyl)piperidine-1-carbonyl)hexahydro-2H-pyrido[4,3-b][1,4]oxazin-3(4H)-one], 0.2 nM.
Under `O=C1CO[C@H]2CCN(C(=O)N3CCC(C(c4ccccc4)c4cccc(OCCF)c4)CC3)C[C@H]2N1` (single isomer, unassigned) [Example 66, (4aR,8aS)-6-(4-((S or R)-(3-(2-Fluoroethoxy)phenyl)(phenyl)methyl)piperidine-1-carbonyl)hexahydro-2H-pyrido[4,3-b][1,4]oxazin-3(4H)-one] stands 0.4 nM; under `O=C1CO[C@H]2CCN(C(=O)N3CCC(C(c4ccccc4)c4ccc(F)cc4)CC3)C[C@H]2N1` (single isomer, unassigned) [Example 68, (4aR,8aS)-6-(4-((S or R)-(4-Fluorophenyl)(phenyl)methyl)piperidine-1-carbonyl)hexahydro-2H-pyrido[4,3-b][1,4]oxazin-3(4H)-one], 0.2 nM.
The molecule `Cc1ccc(C(c2ccc(F)cc2)C2CCN(C(=O)N3CC[C@@H]4OCC(=O)N[C@@H]4C3)CC2)cc1` (single isomer, unassigned) [Example 69, (4aR,8aS)-6-[4-[(S or R)-(4-Fluorophenyl)-(4-methylphenyl)methyl]piperidine-1-carbonyl]-4,4a,5,7,8,8a-hexahydropyrido[4,3-b][1,4]oxazin-3-one] showed an IC50 of 0.1 nM.
`O=C1CO[C@H]2CCN(C(=O)N3CCC(C(c4ccccc4)c4ccc(OCCF)cc4)CC3)C[C@H]2N1` (single isomer, unassigned) [Example 70, (4aR,8aS)-6-[4-[(R or S)-[4-(2-Fluoroethoxy)phenyl]-phenylmethyl]piperidine-1-carbonyl]-4,4a,5,7,8,8a-hexahydropyrido[4,3-b][1,4]oxazin-3-one] gave an IC50 of 4 nM.
Under `COc1ccc(C(c2ccc(F)cc2)C2CCN(C(=O)N3CC[C@@H]4OCC(=O)N[C@@H]4C3)CC2)cc1` (single isomer, unassigned) [Example 71, (4aR,8aS)-6-(4-((S or R)-(4-Fluorophenyl)(4-methoxyphenyl)methyl)piperidine-1-carbonyl)hexahydro-2H-pyrido[4,3-b][1,4]oxazin-3(4H)-one] stands 0.2 nM; under `Cc1ccc(C(c2ccc(F)cc2)C2CCN(C(=O)N3CC[C@@H]4OCC(=O)N[C@@H]4C3)CC2)cc1` (single isomer, unassigned) [Example 72, (4aR,8aS)-6-(4-((R or S)-(4-Fluorophenyl)(p-tolyl)methyl)piperidine-1-carbonyl)hexahydro-2H-pyrido[4,3-b][1,4]oxazin-3(4H)-one], 0.1 nM; under `COc1ccc(C(c2ccc(F)cc2)C2CCN(C(=O)N3CC[C@@H]4OCC(=O)N[C@@H]4C3)CC2)cc1OC` (single isomer, unassigned) [Example 73, (4aR,8aS)-6-(4-((S or R)-(3,4-Dimethoxyphenyl)(4-fluorophenyl)methyl)piperidine-1-carbonyl)hexahydro-2H-pyrido[4,3-b][1,4]oxazin-3(4H)-one], 0.4 nM.
Under `COc1ccc(C(c2ccccc2)C2CCN(C(=O)N3CC[C@@H]4OCC(=O)N[C@@H]4C3)CC2)cc1OC` (single isomer, unassigned) [Example 74, (4aR,8aS)-6-(4-((R or S)-(3,4-Dimethoxyphenyl)(phenyl)methyl)piperidine-1-carbonyl)hexahydro-2H-pyrido[4,3-b][1,4]oxazin-3(4H)-one] stands 2 nM.
